Literature values, collected in patent US11766438B2, “Pharmaceutical compositions of tofacitinib for oral administration” (Slayback Pharma LLC, priority 2020, dated 2023).
Like-named read-outs stand apart in the source and are kept apart here.

Compound: C[C@@H]1CCN(C(=O)CC#N)C[C@@H]1N(C)c1ncnc2[nH]ccc12.O=C(O)CC(O)(CC(=O)O)C(=O)O [Tofacitinib citrate, (3R,4R)-4-methyl-3-(methyl-7H-pyrrolo[2,3-d]pyrimidin-4-ylamino)-β-oxo-1-piperidinepropanenitrile, 2-hydroxy-1,2,3-propanetricarboxylate (1:1)]
- Solubility (aqueous solution of pH 1 to 3.9): 3.48 to 28 mg/mL
- Solubility (aqueous solution of pH 4.53 to 8): 0.20 to 0.59 mg/mL
